In US6589983B1, “Benzopyran derivative” (Nissan Chemical Industries, Ltd., priority 1999, dated 2003):

tested on: guinea-pig left atrium muscle; experiment: Effects of compound on the functional refractory period in guinea-pig left atrium muscle; settings: isolated atrium muscle, stimulated at 1 Hz, compound added cumulatively, 15 minutes per concentration, 36±1° C.
From the text: Effects of compound on the functional refractory period in guinea-pig left atrium muscle and right ventricular papillary muscle
Hearts were removed from guinea-pigs, and left atrium muscle or right ventricular papillary muscle were isolated therefrom in a Krebs-Henseleit solution aerated with 95% O2+5% CO2. The samples were stimulated electrically at a rate of 1 Hz and a voltage of 1.5 times of the threshold value reacted to stimulation (basic stimulation; S1) by using an electric stimulating apparatus. The contraction occurred at that time was recorded by a thermal stylus recorder via a FD pickup and a strain pressure amplifier. The functional refractory period is defined as the shortest time interval between S1 resulting from determinable contraction and an extra stimulation (S2). The time interval between S1 and S2 in the left atrium muscle sample was started from 150 msec, decreased in 10 msec steps until 100 msec, and thereafter 5 msec steps to the functional refractory period. For the right ventricular papillary muscle sample, it was started from 300 msec and decreased in 10 msec steps until the functional refractory period. Herein, S2 was set at twice of the threshold value which reacted to stimulation. The experimental temperature was 36±1° C. […] After determining the basic value before addition of the compound, the compound was added cumulatively, incubated for 15 minutes for respective concentration, and thereafter the functional refractory period was determined.

First: CC(=O)Nc1cc2c(cc1[N+](=O)[O-])OC(C)(C)[C@H](O)[C@H]2NCCc1ccccc1 [compound 1]
Second: CC(=O)Nc1cc2c(cc1[N+](=O)[O-])OC(C)(C)[C@H](O)[C@H]2NCCCCc1ccccc1 [compound 3]
The “Prolongation effect on FRP EC20” value of the first is 1.5-fold higher: 6.1 µM for the first, 4.0 µM for the second.

Going from `CC(=O)Nc1cc2c(cc1[N+](=O)[O-])OC(C)(C)[C@H](O)[C@H]2NCCc1ccc(O)cc1` [compound 4] to `CC(=O)Nc1cc2c(cc1[N+](=O)[O-])OC(C)(C)[C@H](O)[C@H]2NCCc1ccc(Cl)cc1` [compound 6], the “Prolongation effect on FRP EC20” value falls from 5.0 µM to 1.4 µM (3.6-fold).

First: COc1ccc(CCN[C@H]2c3cc(NC(C)=O)c([N+](=O)[O-])cc3OC(C)(C)[C@@H]2O)cc1 [compound 5]
Second: CC(=O)Nc1cc2c(cc1[N+](=O)[O-])OC(C)(C)[C@H](O)[C@H]2NCCc1ccc([N+](=O)[O-])cc1 [compound 8]
The “Prolongation effect on FRP EC20” value of the first is 3.1-fold higher: 5.5 µM for the first, 1.8 µM for the second.

tested on: not given; experiment: not given; settings: not given

With `CC(=O)Nc1cc2c(cc1[N+](=O)[O-])OC(C)(C)[C@H](O)[C@H]2NCCc1ccc([N+](=O)[O-])cc1` (stereo in doubt) the melting point was 211 to 213 °C (dec.).
